Test results from ChEMBL document CHEMBL1201862, “PubChem BioAssay data set” (2004).
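A five-concentration, 48-hour dose response in 96-well plates underlies each endpoint, interpolated linearly between surrounding concentrations. GI50 marks 50% less growth.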 Activity calls are given as the source filed them. Cut-off read from the data, not from the text of the source: active = GI50 up to about 1.1 µM and inactive = higher.

Experiments:
Assay in all cases: NCI tumour cell line growth inhibition, 48 h
[1] = tested on: 786-0
[2] = tested on: A549
[3] = tested on: ACHN
[4] = tested on: CCRF-CEM
[5] = tested on: COLO 205
[6] = tested on: DLD-1
[7] = tested on: DMS-114
[8] = tested on: DMS-273
[9] = tested on: EKVX
[10] = tested on: HCC 2998
[11] = tested on: HCT-116
[12] = tested on: HCT-15
[13] = tested on: HL-60
[14] = tested on: HOP-62
[15] = tested on: IGROV-1
[16] = tested on: K562
[17] = tested on: KM-20L2
[18] = tested on: KM12
[19] = tested on: LOX IMVI
[20] = tested on: LXFL 529
[21] = tested on: M14
[22] = tested on: M19-MEL
[23] = tested on: MOLT-4
[24] = tested on: Malme-3M
[25] = tested on: NCI-H23
[26] = tested on: NCI-H460
[27] = tested on: NCI-H522
[28] = tested on: OVCAR-3
[29] = tested on: OVCAR-5
[30] = tested on: OVCAR-8
[31] = tested on: RPMI-8226
[32] = tested on: RXF 393
[33] = tested on: SF-268
[34] = tested on: SF-295
[35] = tested on: SF-539
[36] = tested on: SK-MEL-28
[37] = tested on: SK-MEL-2
[38] = tested on: SK-MEL-5
[39] = tested on: SK-OV-3
[40] = tested on: SN12C
[41] = tested on: SNB-19
[42] = tested on: SNB-78
[43] = tested on: SW-620
[44] = tested on: TK-10
[45] = tested on: U-251
[46] = tested on: UACC-257
[47] = tested on: UACC-62
[48] = tested on: UO-31
[49] = tested on: CAKI-1
[50] = tested on: HOP-18
[51] = tested on: HOP-92
[52] = tested on: HT-29
[53] = tested on: NCI-H226
[54] = tested on: OVCAR-4
[55] = tested on: SNB-75
[56] = tested on: SR
[57] = tested on: A498
[58] = tested on: BT-549
[59] = tested on: Hs-578T
[60] = tested on: MCF7
[61] = tested on: NCI/ADR-RES
[62] = tested on: PC-3

In the case of O=S(=O)(c1cccc(N=C=S)c1)c1cccc(N=C=S)c1, the GI50 [1] is reported as 16 µM (inactive), the GI50 [2] is reported as > 100 µM (inactive) and the GI50 [3] is reported as 18.6 µM (inactive). For the same compound, the GI50 [4] was 5.51 µM (inactive), the GI50 [5] was 19.5 µM (inactive) and the GI50 [6] was 19.2 µM (inactive). The GI50 [7] was 15.5 µM (inactive), the GI50 [8] was 18.7 µM (inactive) and the GI50 [9] was > 100 µM (inactive). For the same compound, the GI50 [10] was 21.8 µM (inactive), the GI50 [11] was 18.1 µM (inactive) and the GI50 [12] was 18.3 µM. For the same compound, the GI50 [13] was 21.7 µM (inactive), the GI50 [14] was 11.3 µM (inactive) and the GI50 [15] was 18.7 µM (inactive). For the same compound, the GI50 [16] was 16.3 µM (inactive), the GI50 [17] was 31.5 µM (inactive) and the GI50 [18] was 27.5 µM (inactive). The GI50 [19] was 17.7 µM (inactive), the GI50 [20] was 15.2 µM (inactive) and the GI50 [21] was 11.4 µM (inactive). The GI50 [22] was > 10 µM (inactive), the GI50 [23] was 4.85 µM (inactive) and the GI50 [24] was 18.9 µM (inactive). The GI50 [25] was 17.1 µM (inactive), the GI50 [26] was > 10 µM (inactive) and the GI50 [27] was 16.7 µM (inactive). The GI50 [28] was 11.6 µM (inactive), the GI50 [29] was 47 µM (inactive) and the GI50 [30] was > 10 µM (inactive). The GI50 [31] was 28.7 µM (inactive), the GI50 [32] was 8.11 µM (inactive) and the GI50 [33] was 18.2 µM (inactive). For the same compound, the GI50 [34] was 19.5 µM (inactive), the GI50 [35] was > 10 µM (inactive) and the GI50 [36] was 18.2 µM (inactive). For the same compound, the GI50 [37] was 18.5 µM (inactive), the GI50 [38] was 19.7 µM (inactive) and the GI50 [39] was 19.2 µM (inactive). The GI50 [40] was 22 µM (inactive), the GI50 [41] was 64.1 µM (inactive) and the GI50 [42] was 30.6 µM (inactive). The GI50 [43] was > 10 µM (inactive), the GI50 [44] was 20 µM (inactive) and the GI50 [45] was 18.9 µM (inactive). For the same compound, the GI50 [46] was 20.4 µM (inactive), the GI50 [47] was 19.1 µM (inactive) and the GI50 [48] was 28.7 µM (inactive).
With Cn1c(NC(=O)NC23CC4CC(CC(C4)C2)C3)nc2ccccc21 the GI50 [1] was 17.1 µM (inactive), the GI50 [2] was > 100 µM (inactive) and the GI50 [3] was 27.5 µM (inactive). The GI50 [49] was 48.6 µM (inactive), the GI50 [5] was > 100 µM (inactive) and the GI50 [6] was > 100 µM (inactive). The GI50 [8] was 26.5 µM (inactive), the GI50 [9] was 83.8 µM (inactive) and the GI50 [10] was > 100 µM (inactive). The GI50 [11] was 15.3 µM (inactive), the GI50 [12] was > 100 µM and the GI50 [13] was > 100 µM (inactive). The GI50 [50] was 19.2 µM (inactive), the GI50 [14] was 30.5 µM (inactive) and the GI50 [51] was 25.5 µM (inactive). The GI50 [52] was > 100 µM (inactive), the GI50 [15] was > 100 µM (inactive) and the GI50 [16] was > 100 µM (inactive). The GI50 [17] was > 100 µM (inactive), the GI50 [18] was > 100 µM (inactive) and the GI50 [19] was > 100 µM (inactive). For the same compound, the GI50 [20] was 86.1 µM (inactive), the GI50 [21] was 47.8 µM (inactive) and the GI50 [22] was 57.5 µM (inactive). The GI50 [23] was > 100 µM (inactive), the GI50 [24] was 17.5 µM (inactive) and the GI50 [53] was 93.5 µM (inactive). The GI50 [25] was > 100 µM (inactive), the GI50 [26] was 38.4 µM (inactive) and the GI50 [27] was 78.7 µM (inactive). The GI50 [28] was > 100 µM (inactive), the GI50 [54] was 4.22 µM (inactive) and the GI50 [29] was > 100 µM (inactive). For the same compound, the GI50 [30] was > 100 µM (inactive), the GI50 [31] was > 100 µM (inactive) and the GI50 [32] was 15.7 µM (inactive). The GI50 [33] was 28.5 µM (inactive), the GI50 [34] was 12.6 µM (inactive) and the GI50 [35] was 81.1 µM (inactive). The GI50 [36] was 96.4 µM (inactive), the GI50 [37] was 71.3 µM (inactive) and the GI50 [38] was 91 µM (inactive). The GI50 [39] was 17.4 µM (inactive), the GI50 [40] was 68.5 µM (inactive) and the GI50 [41] was 95.1 µM (inactive). The GI50 [55] was 3.94 µM (inactive), the GI50 [42] was 23.8 µM (inactive) and the GI50 [56] was > 100 µM (inactive). The GI50 [43] was > 100 µM (inactive), the GI50 [44] was 39.5 µM (inactive) and the GI50 [45] was 48.8 µM (inactive). For the same compound, the GI50 [46] was 94.2 µM (inactive), the GI50 [47] was 40.1 µM (inactive) and the GI50 [48] was > 100 µM (inactive).
COc1cc(CNc2ccc(SC)cc2)cc(OC)c1OC was tested, and the GI50 [1] was 8.2 µM (inactive), the GI50 [57] was 13.6 µM (inactive) and the GI50 [2] was 8.41 µM (inactive). The GI50 [58] was 1.63 µM (inactive), the GI50 [4] was 6.65 µM (inactive) and the GI50 [5] was 3.47 µM (inactive). The GI50 [7] was 3.37 µM (inactive), the GI50 [8] was 4.48 µM (inactive) and the GI50 [9] was 27.1 µM (inactive). The GI50 [11] was 4.71 µM (inactive), the GI50 [12] was 4.23 µM and the GI50 [13] was 2.55 µM (inactive). The GI50 [50] was 22.6 µM (inactive), the GI50 [52] was 3.35 µM (inactive) and the GI50 [59] was 11 µM (inactive). For the same compound, the GI50 [17] was 4.31 µM (inactive), the GI50 [19] was 5.75 µM (inactive) and the GI50 [20] was 12.6 µM (inactive). The GI50 [21] was 3.27 µM (inactive), the GI50 [60] was 3.36 µM (inactive) and the GI50 [23] was 5.6 µM (inactive). The GI50 [24] was 7.29 µM (inactive), the GI50 [26] was 4.38 µM (inactive) and the GI50 [27] was 2.88 µM (inactive). The GI50 [61] was 3.15 µM (inactive), the GI50 [28] was 3.68 µM (inactive) and the GI50 [54] was 27 µM (inactive). The GI50 [29] was 17.2 µM (inactive), the GI50 [62] was 6.95 µM (inactive) and the GI50 [31] was 8.57 µM (inactive). For the same compound, the GI50 [37] was 6.27 µM (inactive), the GI50 [42] was 53.8 µM (inactive) and the GI50 [43] was 3.46 µM (inactive). For the same compound, the GI50 [48] was 10.9 µM (inactive).
